In patent US5034317A, “Enzyme controlled release system and organic conjugate reactant” (priority 1987, dated 1991):

What was measured:
Type in all cases: biochemical
[1] = biological target: Aspergillus oryzae β-galactosidase (Aspergillus oryzae, UniProt Q2UCU3); experiment: Enzymatic hydrolysis of conjugate reactants by Aspergillus oryzae β-galactosidase (release of displaceable ligand)
Excerpt: (§1) A major advantage provided by the organic conjugate compositions comprising the present invention is the selective ability to discriminate not only between different classes of enzymes, but also to distinguish the same enzyme obtained from different sources. […] Each of the individual, separately derived, beta-galactosidases were commercially obtained and empirically evaluated using the test protocol described previously in Example 6.

E. coli β-galactosidase = E. coli β-galactosidase (Escherichia coli, UniProt P00722); experiment: Enzymatic hydrolysis of conjugate reactants by E. coli β-galactosidase; settings: 25° C., 10^-3 M, E. coli β-galactosidase 7.5 units, pH 7.0 (Table 6)
Chain of E. coli β-galactosidase (P00722 whole entry): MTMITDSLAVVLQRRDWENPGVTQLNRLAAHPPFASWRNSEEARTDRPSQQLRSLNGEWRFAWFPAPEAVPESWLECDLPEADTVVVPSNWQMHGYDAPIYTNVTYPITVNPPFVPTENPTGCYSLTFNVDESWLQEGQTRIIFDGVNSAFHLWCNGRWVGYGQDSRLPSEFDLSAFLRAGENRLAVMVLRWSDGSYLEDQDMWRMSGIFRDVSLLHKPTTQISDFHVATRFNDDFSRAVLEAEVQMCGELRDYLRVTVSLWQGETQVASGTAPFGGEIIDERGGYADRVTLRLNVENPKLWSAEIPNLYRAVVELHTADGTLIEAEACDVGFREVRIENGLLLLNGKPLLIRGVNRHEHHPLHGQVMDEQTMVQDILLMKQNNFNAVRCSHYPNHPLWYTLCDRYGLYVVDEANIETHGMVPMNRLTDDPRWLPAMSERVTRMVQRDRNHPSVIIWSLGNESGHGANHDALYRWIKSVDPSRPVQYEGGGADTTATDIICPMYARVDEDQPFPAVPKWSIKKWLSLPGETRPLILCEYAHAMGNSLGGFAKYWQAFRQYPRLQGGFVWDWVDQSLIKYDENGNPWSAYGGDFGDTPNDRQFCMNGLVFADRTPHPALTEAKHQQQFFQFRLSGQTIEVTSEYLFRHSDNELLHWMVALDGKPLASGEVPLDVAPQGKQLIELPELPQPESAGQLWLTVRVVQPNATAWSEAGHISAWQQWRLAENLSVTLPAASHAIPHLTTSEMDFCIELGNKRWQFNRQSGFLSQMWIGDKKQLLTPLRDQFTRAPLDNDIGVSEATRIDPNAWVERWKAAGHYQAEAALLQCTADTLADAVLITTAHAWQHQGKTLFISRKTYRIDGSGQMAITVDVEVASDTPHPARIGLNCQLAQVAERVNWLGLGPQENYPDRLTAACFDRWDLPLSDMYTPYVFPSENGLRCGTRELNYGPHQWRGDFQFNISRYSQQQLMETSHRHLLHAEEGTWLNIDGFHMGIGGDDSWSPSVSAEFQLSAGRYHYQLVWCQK
Excerpt: as §1

[2] = biological target: T1, beef liver β-galactosidase (Bos taurus, UniProt Q58D55); experiment: Enzymatic hydrolysis of conjugate reactants by beef liver β-galactosidase; settings: beef liver β-galactosidase 0.66 units; for Measured Rate of Reaction: 25° C., 10^-3 M
T1 sequence (Q58D55 28-653): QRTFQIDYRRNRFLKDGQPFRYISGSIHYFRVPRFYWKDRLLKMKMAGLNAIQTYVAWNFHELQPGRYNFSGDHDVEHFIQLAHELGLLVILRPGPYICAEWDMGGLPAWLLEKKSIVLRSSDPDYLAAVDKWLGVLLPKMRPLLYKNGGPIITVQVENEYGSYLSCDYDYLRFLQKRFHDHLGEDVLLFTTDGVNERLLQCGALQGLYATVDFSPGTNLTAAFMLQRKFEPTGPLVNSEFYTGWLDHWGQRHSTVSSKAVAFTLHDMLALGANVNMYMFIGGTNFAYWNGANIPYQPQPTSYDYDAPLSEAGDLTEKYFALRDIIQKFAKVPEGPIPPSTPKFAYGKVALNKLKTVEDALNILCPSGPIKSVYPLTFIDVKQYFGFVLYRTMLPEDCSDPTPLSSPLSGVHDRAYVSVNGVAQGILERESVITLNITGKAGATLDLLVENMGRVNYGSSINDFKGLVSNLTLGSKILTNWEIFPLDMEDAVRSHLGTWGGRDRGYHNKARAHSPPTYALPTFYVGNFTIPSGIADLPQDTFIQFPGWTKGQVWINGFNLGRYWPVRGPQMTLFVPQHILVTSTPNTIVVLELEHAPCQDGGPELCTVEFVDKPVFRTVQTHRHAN
Excerpt: as §1

[3] = biological target: Aspergillus oryzae Beta galactosidase (Aspergillus oryzae, UniProt Q2UCU3); experiment: Spectrofluorimetric detection of 1.0×10^-12 M enzyme with conjugate substrate
Chain of Aspergillus oryzae Beta galactosidase (Q2UCU3 19-1005): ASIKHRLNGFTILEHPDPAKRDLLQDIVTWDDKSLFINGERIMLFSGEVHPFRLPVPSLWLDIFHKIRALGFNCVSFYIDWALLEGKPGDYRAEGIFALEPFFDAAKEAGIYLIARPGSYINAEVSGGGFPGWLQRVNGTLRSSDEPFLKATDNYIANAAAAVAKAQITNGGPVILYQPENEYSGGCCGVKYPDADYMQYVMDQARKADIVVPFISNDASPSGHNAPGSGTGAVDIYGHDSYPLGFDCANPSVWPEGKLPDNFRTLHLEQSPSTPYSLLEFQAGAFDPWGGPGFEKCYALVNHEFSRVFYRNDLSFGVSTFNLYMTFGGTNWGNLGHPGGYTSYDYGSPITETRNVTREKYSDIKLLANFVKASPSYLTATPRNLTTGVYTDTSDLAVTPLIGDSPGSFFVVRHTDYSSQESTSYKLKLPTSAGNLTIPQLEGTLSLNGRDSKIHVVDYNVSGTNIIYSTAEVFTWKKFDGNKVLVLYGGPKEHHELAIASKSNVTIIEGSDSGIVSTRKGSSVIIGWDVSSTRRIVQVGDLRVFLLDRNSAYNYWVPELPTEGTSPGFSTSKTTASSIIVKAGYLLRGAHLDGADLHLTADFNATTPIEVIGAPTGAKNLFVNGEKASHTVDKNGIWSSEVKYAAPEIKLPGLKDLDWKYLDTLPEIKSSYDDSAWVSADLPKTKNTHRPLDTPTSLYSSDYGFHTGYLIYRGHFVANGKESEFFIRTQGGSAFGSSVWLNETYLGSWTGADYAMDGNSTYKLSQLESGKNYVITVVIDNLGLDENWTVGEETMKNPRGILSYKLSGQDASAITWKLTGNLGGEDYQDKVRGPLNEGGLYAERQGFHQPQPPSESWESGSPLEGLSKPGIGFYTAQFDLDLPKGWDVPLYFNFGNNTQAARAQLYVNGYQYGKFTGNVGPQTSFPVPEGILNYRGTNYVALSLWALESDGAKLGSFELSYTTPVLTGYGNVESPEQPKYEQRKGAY
Description: Experimental conditions: Ten microliters of 1.0×10^-10 M Aspergillus oryzae Beta galactosidase (Cal Biochem) in 100 mM citrate phosphate, pH 5, with 0.05% w/v gelatin (Buffer A) was added to one milliliter of 1.6 mM compound 15 in Buffer A, yielding a final enzyme concentration of 1.0×10^-12 M. One half milliliter of this reaction mixture was monitored in a spectrofluorimeter in a two millimeter cuvette with instrument settings of 540 nm excitation, 580 emission and 5 nm slit widths. The signal was measured on a chart recorder at a speed of one centimeter per minute and at a sensitivity setting that gave fifteen percent deflection with 1.7×10^-7 M Sulforhodamine 101 in ethanol.

[4] = reactant 1.7 × 10^-5 M, temperature 36.5, 0.85 units Aspergillus oryzae β-galactosidase, pH 7.0 (Table 5)

Chain of Aspergillus oryzae β-galactosidase (Q2UCU3 19-1005): as above

With `CCN(C(=O)Oc1ccc([N+](=O)[O-])cc1)c1cc(S(=O)(=O)N(C)C)ccc1O[C@@H]1O[C@H](CO)[C@H](O)[C@H](O)[C@H]1O` [Compound 6, 2-[N-ethyl N-carbo (p-nitrophenoxy)]-4-dimethylamino sulfonyl phenyl-β-D-galactopyranoside] the “Measured Rate of Reaction” value ([1]; 25° C., 10^-3 M, Asp. ory. β-galactosidase 0.5 units, pH 5.5 (Table 6)) was 0.028 µmol/min, the “Measured Rate of Reaction” value ([1]; 25° C., 10^-3 M, Asp. ory. β-galactosidase 0.85 units, pH 7.0 (Table 6)) was 0.0091 µmol/min and the “Measured Rate of Reaction” value [1, 4] was 0.0065 µmol/min. The “Measured Rate of Reaction” value ([1]; reactant 10^-3 M, temperature 25, 0.5 units Aspergillus oryzae β-galactosidase, pH 5.5 (Table 5)) was 0.028 µmol/min, the “Measured Rate of Reaction” value ([1]; reactant 10^-3 M, temperature 25, 0.85 units Aspergillus oryzae β-galactosidase, pH 7.0 (Table 5)) was 0.009 µmol/min and the “Measured Rate of Reaction” value ([1]; reactant 10^-3 M, temperature 25, 1.0 units Aspergillus oryzae β-galactosidase, pH 5.5 (Table 5)) was 0.066 µmol/min. The “Measured Rate of Reaction” value ([1]; reactant 10^-3 M, temperature 25, 4.2 units Aspergillus oryzae β-galactosidase, pH 7.0 (Table 5)) was 0.039 µmol/min, the “Measured Rate of Reaction” value (E. coli β-galactosidase) was 0.00006 µmol/min and the “Measured Rate of Reaction” value ([2]; pH 5.5 (Table 6)) was 0.0094 µmol/min. The “Measured Rate of Reaction” value ([2]; pH 7.0 (Table 6)) was 0.00075 µmol/min.

For `CCN(C(=O)Oc1ccc2nc3ccc(=O)cc-3oc2c1)c1cc(S(=O)(=O)N2CCN(C(=O)CCC(=O)O)CC2)ccc1O[C@@H]1O[C@H](CO)[C@H](O)[C@H](O)[C@H]1O` [Compound 15], the “signal generated by the substrate solution alone (no enzyme)” value ([3]; 1.6 mM substrate in Buffer A pH 5, without enzyme, fluorescence over time) was “No increase in the signal” and the “increase in deflection (fluorescence signal) of the enzyme reaction mixture” value ([3]; 1.6 mM substrate, 1.0×10^-12 M enzyme, 100 mM citrate phosphate pH 5 with 0.05% gelatin, ten minute interval, 540 nm excitation, 580 emission) was “one and one half percent increase in deflection”.

For `CCN(C(=O)Oc1ccc2nc3ccc(=O)cc-3oc2c1)c1cc(S(=O)(=O)N(C)C)ccc1O[C@@H]1O[C@H](CO)[C@H](O)[C@H](O)[C@H]1O` [Compound 8, 2-[N-ethyl-N-carbo (resorufinyl)]-4-dimeehylamino sulfonylphenyl-β-D-galactopyranoside], the “Measured Rate of Reaction” value ([1]; 36.5° C., 1.7 × 10^-5 M, Asp. ory. β-galactosidase 0.85 units, pH 7.0 (Table 6)) was 0.0015 µmol/min, the “Measured Rate of Reaction” value [1, 4] was 0.0015 µmol/min and the “Measured Rate of Reaction (in words: hydrolysis after 4 days)” value ([2]; 36.5° C., 1.7 × 10^-5 M, pH 7.0, cell reads 'incomplete hydro-lysis after 4 days' (Table 6)) was “incomplete”.
